Reference: patent US20020049157A1, “Use of proteasome inhibitors for treating cancer, inflammation, autoimmune disease, graft rejection and septic shock” (priority 1998, published 2002)
pIC50: −log10 of the molar value. Read-outs that look alike come from different tables or passages of the source. Peptide text beside a SMILES is read from it. * marks the point of attachment. Cbz = O=C(OCc1ccccc1)*; CH2F = FC*

Tests used:
[1] = test system: BALB/c mouse spleen cells; experiment: Anti-CD3-stimulated T cell proliferation (3H-thymidine); assay type: cell-based; conditions: anti-CD3 50 ng/ml; pulsed 48 h, harvested 64 h
Protocol: The cells were pulsed with ^3H-thymidine at 48 h and harvested at 64 h after the culture.

heart allograft = assay type: in vivo, mouse
Protocol: BALB/c mice (H-2^d) were used as heart donors and C57BL/6 mice (H-2^b) as recipients. […] Group 2 was given 0.65 mg/kg/day; group 3 was given 1.0 mg/kg/day for 4 days, and the dose was then reduced to 0.5 mg/kg/day for 12 days. The graft survival days, mean survival time (MST) and the p value (unpaired Student's test) compared with the control group was presented.
The applicant then used DPBA in treating allograft rejection in a mouse model. BALB/c (H-2^d) mice were used as donors and C57BL/6 (H-2^b) was used as recipients. Heterotropic heart transplantation was performed as described in our previous publication (Chen et al., 1996, supra). […] With this regimen, the MST is more than 22.8+9.8 days and has a tendency of being better than the first group.
Proteasome inhibitors when added at the late G1 phase can suppress proliferation and even induce apoptosis of the activated T cells. […] This possibility was tested in mouse heart transplantation model. The recipients were given no immunosuppressants for 72 h after the transplantation to allow the rejection response to proceed. […] This new drug will be especially useful in patients who are resistant to commonly used immunosuppressants such as CyA, azathioprine, and glucocorticoids.

islet allograft = experiment: Mouse islet allograft in streptozocin-induced diabetes; assay type: in vivo; conditions: 1 mg/kg/day i.p. for 16 days, then 0.5 mg/kg twice a week until day 60
Protocol: C57BL/6 mice were treated with 250 mg/kg streptozocin and used as islet graft recipients when their blood glucose reached […] from BALB/c mice were isolated after collagenase digestion followed by Ficoll gradient separation. The islets were cultured overnight, and transplanted into the peritoneal cavity of the diabetic C57BL/6 recipients (500-600 islets/recipient). […] The blood glucose of the mice was measured daily and the means+SDs are shown. […] The mice were sacrificed on day 60, or when their blood glucose reached […].

[2] = test system: Streptococcus cell wall-induced polyarthritis; conditions: in vivo, cited from earlier work
proteasome = conditions: for repression of chymotrypsin-like activity in the PBMC: RAPA at 10 nM
Protocol: Human PBMC were cultured in the absence or presence of 2 μg/ml PHA or 10 nM RAPA for 16 h-70 h as indicated. The cells were then harvested, and the chymotrypsin-like activity of whole cells lysates was assayed in the absence or presence of 20 μM proteasome inhibitor LAC. The data are presented as arbitrary units of fluorescence intensity per 20 μg lysate protein. The experiments were repeated three times and a representative one is shown. Samples are in duplicate and the mean±SD is shown. (A) Total chymotrypsin-like activity in the lysate of PBMC. (B) Lactacystin-inhibitable chymotrypsin-like activity in the lysate of 70 h PBMC. Nine micrograms of 20S proteasome were used as positive controls for the inhibitory effect of LAC at 10 μM and 20 μM. LAC was always added to the lysates during the proteinase assay 15 min before the addition of the substrate. The solid bars represent the activity in the presence of LAC. The net proteasome activities are calculated as the total activity minus the remaining activity after the LAC addition.
PBMC lysates were assayed for their proteinase activity at pH 8.2 which favors the proteasome activity, using a chymotrypsin substrate as a representative parameter.
PBMC were cultured with or without PHA (2 μg/ml) and RAPA (10 nM). After 16 h-70 h, the cells were harvested and sonicated in 300 μl PBS on ice for 40 sec. Twenty micrograms of protein per sample from the cleared lysates were supplemented to 100 μl with 0.1 M Tris buffer (pH 8.2). A proteasome-specific inhibitor lactacystin (Omura et al., 1991, supra; Fentenay et al., 1995, supra) was added at a final concentration of 10 nM in some samples as indicated. The samples were incubated on ice for 15 min, and fluorogenic chymotrypsin substrate sLLVY-MCA was then added at a final concentration of 10 nM. The 20S proteasome, which was prepared as previously described (Friguet et al, 1994, J. Biol. Chem. 269:21639), was used as a positive control in place of cell lysates. The samples were incubated at 37° C. for 15 min and the reaction was terminated by adding 4 μl 2.5 M HCl. The samples were then diluted to 2 ml with 0.1 M Tris pH8.2, and measured for their fluorescent intensity by a PTI fluorometer (Photo Technology International, South Brunswick, N.J.). The excitation wavelength was 380 nm, and the emission wavelength 440 mn.

Jurkat and Namalwa cells = experiment: Apoptosis induction in Jurkat and Namalwa cells; assay type: cell-based
Jurkat cells [3] = experiment: DNA fragmentation (DNA laddering) in Jurkat cells; assay type: cell-based; conditions: LAC 6 μM; caspase inhibitor 0.4 μM to 33.3 μM; 6 h
Protocol: Tonsillar T cells (A, B, and D) and Jurkat cells (C and E) were treated with LAC (10 μM for T cells and 6 μM for Jurkat cells). LAC was added at the beginning of the culture or 40 h after T cell activation as indicated. The cells were harvested at the time points as shown. They were evaluated for their viability with trypan blue exclusion (A, B, and C), and for their mode of cell death according to DNA fragmentation (D and E).
Jurkat cells were treated with LAC (6 μM) in the absence or presence of different concentrations of zVAD.fms (0.4 μM to 33.3 μM) for 6 h. The cells were harvested and their DNA was analyzed by a DNA fragmentation assay according to DNA laddering.
We next employed DNA laddering to study the mode of cell death caused by LAC, and the result of this experiment also reflected the degree of cell death after different treatments. […] After 24 h of LAC treatment, the ladders became less discrete, and this probably reflected further DNA breakdown.
The assay was performed according to a protocol described by Liu et al (Liu et al., 1997, Cell. 89:175) with some modifications. Briefly, 2-6 million cells were re-suspended in 50 μl PBS followed by 300 μl lysis buffer (100 mM Tris-HCl, pH 8.0, 5 mM EDTA, 0.2 M NaCl. 0.2% w/v SDS, and 0.2 mg/ml proteinase K). After overnight incubation at 37° C., 350 μl of 3M NaCl was added to the mixture and cell debris was removed by centrifugation at 13000 g for 20 min at room temperature. DNA in the supernatant was precipitated with an equal volume of 100% ethanol. The pellet was washed with cold 70% ethanol and then dissolved in 20 μl of TE containing 0.2 mg/ml RNase A. After incubation at 37° C. for 2 h, the DNA was resolved on 2% agarose gel and visualized with ethidium bromide staining.

Jurkat cells [4] = experiment: Respiration (O2 consumption) of Jurkat cells, oxygen electrode; assay type: cell-based; conditions: LAC for 4 h; 100 μM Cytochrome C
Text: The function of Complex I of digitonin (Dig)-permeated Jurkat cells was blocked by rotenone (Rot), and the respiration was resumed by adding succinate (Suc), which provides electrons to Complex II directly and thus bypasses Complex I. The maximal respiration was achieved by adding CCCP (carbonyl cyanide m-chlorophenylhydrazone), which uncouples the oxidation and phosphorylation. The respiration could be blocked by antimycin A (Ant), which inhibits […]. Curves 1 and 6 represent positive controls of rat kidney mitochondria. Curves 2 and 5 represent normals untreated Jurkat cells. Curves 3 and 4 represent Jurkat cells treated with lactacystin (6 μM) for 2 h and 4 h, respectively.
Complex III in the respiration chain was blocked at Complex III antimycin (Ant), and the electron flow was resumed by addiind ascorbate (Asc) and TMPD (tetramethyl-p-phenyl-enediamine).
The assay system is identical to that described in FIG. 16. Jurkat cells were treated with LAC for 4 h (curve 3). The decoupling reagent used in this experiment to achieve maximal respiration is FCCP (carbonylcyanide-p-trifluoromethoxyphenylhydrazone).
The Jurkat Cells (JC) (30×10^6/ml) or rat kidney proximal tubules mitochondria (RKM) (0.5 mg of protein/ml) were incubated in 1 ml measuring chamber at 37° C. in a respiration buffer containing 200 mM sucrose, 5 mM MgCl2, 5 mM KH2PO4, and 30 mM HEPES-Tris (pH 7.5). During respiration experiments following substrates and inhibitors were used: 0.005% Digitonine (Dig); 10 mM Succinate (Suc); 1 mM Ascorbate (Asc); 0.4 mM tetramethyl-p- phenylenediamine (TMPD); 1 μM CCCP, 1 μM FCCP; 0.1 μM Rotenone (Rot); 50 nM Antimycin A (Anti); 1 mM KCN; 100 μM Cytochrome C (Cyt C). The respiration rate of the Jurkat Cells and mitochondria was measured polarographically with a Clarke oxygen electrode (Yellow Springs Instruments, Yellow Springs, Ohio, U.S.A.) using 1 ml thermojacketed chamber. Oxygen concentration was calibrated with air-saturated buffer using Hypoxanthine—Xanthine Oxidase—Catalase system (“chemical zero”). Oxygen consumption was continuously recorded using a “MacLab/8” (Analog Digital Instruments, U.S.A.) connected to a Macintosh SE computer and the MacLab Chart v.3.3.4 software. Rates of oxygen consumption are expressed as ng-atoms of oxygen/min.

Compound: CC(C)C[C@H](NC(=O)[C@H](Cc1ccccc1)NC(=O)c1cnccn1)B(O)O [DPBA, Pyz-Phe-boroLeu]
- pIC50 [1]: ~7.74
- MST (mean survival time of heart allograft) (heart allograft; 0.65 mg/kg/day i.p. for 16 days): more than 26.2+13 days
- MST (mean survival time of heart allograft) (heart allograft; 1 mg/kg/day i.p. day 1-4, then 0.5 mg/kg/day i.p. day 5-16): more than 22.8+9.8 days
- MST (ongoing rejection) (heart allograft; 1 mg/kg/day i.p. for 4 days starting on day 3): more than 13.2+1.78 days
- appearance of the mice during or after the drug administration (heart allograft; mouse, in vivo, ip): appear healthy
- graft survival (ongoing rejection) (heart allograft; short-term treatment between day 3 and 6): more than 13 days
- duration of normal function of allogeneic islet graft (islet allograft): more than 60 days
- glucose elevation consequent to islet rejection (islet allograft): inhibits the glucose elevation consequent to islet rejection
- toxicity ([2]; rat): without apparent toxicity
- inhibition of Streptococcus cell wall-induced polyarthritis ([2]; rats): effectively inhibit

Compound: CO[C@H]1C[C@@H]2CC[C@@H](C)[C@@](O)(O2)C(=O)C(=O)N2CCCC[C@H]2C(=O)O[C@H]([C@H](C)C[C@@H]2CC[C@@H](O)[C@H](OC)C2)CC(=O)[C@H](C)/C=C(\C)[C@@H](O)[C@@H](OC)C(=O)[C@H](C)C[C@H](C)/C=C/C=C/C=C/1C [RAPA, Rapamycin]
- net proteasome activity (proteasome; PHA plus RAPA-treated cells, 70 h, total minus activity remaining after LAC): 113.2×10^3 units/20 μg protein
- inhibition of the augmented proteasome activity in the PHA-treated PBMC (proteasome; RAPA 10 nM, 70 h): 44.7%
- inhibition of the total proteasome activity in the PHA-treated PBMC (proteasome; RAPA 10 nM, 70 h): 33.6%
- repression of chymotrypsin-like activity in the PBMC (proteasome; 40 h after PHA stimulation): 23.1%
- repression of chymotrypsin-like activity in the PBMC (proteasome; 70 h after PHA stimulation): 41.1%

Compound: CN[C@@H]1C[C@H]2O[C@@](C)([C@@H]1OC)n1c3ccccc3c3c4c(c5c6ccccc6n2c5c31)C(=O)NC4 [staurosporine]
- induction of apoptosis (Jurkat and Namalwa cells): could equally induce apoptosis

Compound: COC(=O)C[C@H](NC(=O)[C@H](C)NC(=O)[C@@H](NC(=O)OCc1ccccc1)C(C)C)C(=O)CF [zVAD.fms, zVAD.fmk] (Cbz-Val-Ala-Asp(OMe)-CH2F)
- effect on LAC-induced DNA fragmentation (Jurkat cells [3]): inhibitory effect on DNA fragmentation that is concentration responsive

Compound: cytochrome c
- respiration of LAC-treated cells after adding exogenous cytochrome c (Jurkat cells [4]): the respiration resumed to a rate similar to that of untreated Jurkat cells and mitochondria
